Results: patent US11351178B2, “Selective HDAC6 inhibitors” (ITALFARMACO S.P.A., priority 2017, dated 2022)
Where two headings read alike, the source gives them in different places.

What was measured:
[1] = molecular target: T1, recombinant human HDAC3 (Homo sapiens, UniProt O15379); test: Enzymatic screening on recombinant human HDAC3; type: biochemical; settings: Table 3
T1 construct: purchased BPS 50003
Experimental: Enzymatic activity on recombinant human HDAC6 and HDAC3 was evaluated (Table 2) for each synthesized compound.
After a period of incubation at 30° C. (incubation times vary for different isoforms and are shown in table 1) 25 μL of solution containing the substrate were added. As substrate, FLUOR DE LYS® deacetylase substrate (Enzo Life Sciences, cat #BML-K1104, FdL), FLUOR DE LYS®-Green substrate (Enzo Life Sciences, cat #BML-K1572 FdL_G) and trifluoroacetyl-L-lysine (Tfal)-2× concentrated solution in 25 mM Tris-HCl, pH 8, 130 mM NaCl 0.05% Tween-20 10% glycerol) were used. Following a reaction period at 30° C.

[2] = test system: peripheral blood mononuclear cells (PBMCs); test: Cytotoxicity on PBMCs (CellTiter 96); type: cell-based; settings: PBMC, 72 h; read-out: PBMC TOXICITY (72 h)
In short: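 Mitochondrial-function readout (CellTiter 96 Aqueous One) after 72 h compound exposure, begun 24 h post-seeding. Dose ranges: 697 cells, 1 to 10000 nM at 2×10^4 cells/well; PBMCs, 1.5 to 10000 nM at 5×10^5 cells/well.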

[3] = test system: human PBMCs; test: Mixed Lymphocytes Reaction (MLR) with human PBMCs (IFN-γ, TNF-α, IL-6); type: cell-based; settings: PBMC, 144 h, two-way MLR, 6 days, negative = induction; for inhibition at […]: 0.25 μM
Experimental: In order to study HDAC6 inhibitors ability to inhibit the activation of allogenic T CD4+ cells, a Mixed Lymphocytes Reaction (MLR or mixed lymphocyte culture, CLM) assay was performed. This is a reaction involving blast transformation of in vitro cultured lymphocytes in the presence of allogeneic lymphocytes. There is the so-called “two-way” reaction wherein the two lymphocyte populations stimulate each other to proliferate, and the so-called “one way” reaction, wherein the proliferation of one of the two populations is inhibited by mitomycin C or irradiation, these cells provide proliferation stimulus (stimulator) to the so-called “responder” cells.
Human peripheral blood mononuclear cells (PBMCs) used in MLR were obtained by Ficoll gradient separation from Buffy Coat of healthy donors.
We used a two-way MLR. The cells from the two donors were plated at 1:1 ratio (allogenic stimulation) to the final concentration of 2×10^5 per well in U-bottom 96 well plates in RPMI 1640 medium with 10% FBS and antibiotics. As a control we individually plated the cells from each donor (singenic stimulus). The experiment for each inhibitor was set in deduplicate for allogeneic stimuli and in quintuplicate for singenic stimuli. The cells were cultured for 6 days in an incubator at 37° C.
After 6 days the effect of the test compounds was evaluated by measuring the production of pro-inflammatory cytokines recognized to be characteristics of this assay.
For this purpose, the culture supernatant was harvested and used for IFN-γ, TNF-α and IL-6 inflammatory cytokine assay.
The JAK inhibitor ruxolitinib was used as the active reference compound in the test.
Values in the table indicate the inhibition percentages. Negative values indicate an induction.

[4] = read-out: MLR IFN-γ inhibition percentage
[5] = read-out: MLR IL-6 inhibition percentage
[6] = read-out: MLR TNF-α inhibition percentage

T1 sequence (O15379 whole entry): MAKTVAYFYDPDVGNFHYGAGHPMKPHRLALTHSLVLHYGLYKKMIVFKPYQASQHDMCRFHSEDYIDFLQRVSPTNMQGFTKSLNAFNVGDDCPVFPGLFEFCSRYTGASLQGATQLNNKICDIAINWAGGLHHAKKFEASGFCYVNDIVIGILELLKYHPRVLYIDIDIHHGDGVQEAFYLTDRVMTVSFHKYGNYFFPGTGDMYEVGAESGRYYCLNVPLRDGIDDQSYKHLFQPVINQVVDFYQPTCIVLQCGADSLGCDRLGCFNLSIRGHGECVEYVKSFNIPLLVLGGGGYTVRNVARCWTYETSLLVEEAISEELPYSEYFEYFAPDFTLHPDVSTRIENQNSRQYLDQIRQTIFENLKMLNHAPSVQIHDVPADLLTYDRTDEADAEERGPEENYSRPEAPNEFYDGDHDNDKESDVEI
T1 sequence (Q9Y618 395-489 partner limits assumed): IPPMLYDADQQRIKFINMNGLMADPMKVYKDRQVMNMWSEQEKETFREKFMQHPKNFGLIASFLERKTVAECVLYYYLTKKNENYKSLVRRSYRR

| SMILES | IC50 [1] | IC50 [2] | further results |
| --- | --- | --- | --- |
| Cn1c(Sc2c(F)cc(C(=O)NO)cc2F)nnc1-c1cccc2ccccc12 [comp. 2, 3,5-difluoro-N-hydroxy-4-((4-methyl-5-(naphthalen-1-yl)-4H-1,2,4-triazol-3-yl)thio)benzamide] | 8.65 µM | > 1 µM |  |
| Cn1c(Sc2c(F)cc(C(=O)NO)cc2F)nnc1-c1cccc(CN2CCCCCC2)c1 [comp. 167, 4-[[5-[3-(azepan-1-ylmethyl)phenyl]-4-methyl-1,2,4-triazol-3-yl]sulfanyl]-3,5-difluoro-benzenecarbohydroxamic acid] |  | > 10 µM |  |
| Cn1c(Sc2c(F)cc(C(=O)NO)cc2F)nnc1-c1cccnn1 [comp. 179, 3,5-difluoro-4-[(4-methyl-5-pyridazin-3-yl-1,2,4-triazol-3-yl)sulfanyl]benzenecarbohydroxamic acid] |  | > 10 µM |  |
| Cn1c(Sc2c(F)cc(C(=O)NO)cc2F)nnc1C(c1ccccc1)c1ccccc1 [comp. 98, 4-[(5-benzhydryl-4-methyl-1,2,4-triazol-3-yl)sulfanyl]-3,5-difluoro-benzenecarbohydroxamic acid] | 8.93 µM |  |  |
| O=C(NO)c1ccc(Cn2nnnc2-c2cccs2)cc1 [comp. 8, N-hydroxy-4-((5-(thiophen-2-yl)-1H-tetrazol-1-yl)methyl)benzamide] |  | 3.5 µM | inhibition at […] [3, 4]: 24.1%; inhibition at […] [3, 5]: -33.1%; inhibition at […] [3, 6]: 54.7%; inhibition at 0.5 µM [3, 4]: 35.3%; inhibition at 0.5 µM [3, 5]: -13%; inhibition at 0.5 µM [3, 6]: 35.1%; inhibition at 1 µM [3, 4]: 15.7%; inhibition at 1 µM [3, 5]: -1.5%; inhibition at 1 µM [3, 6]: 28.1% |
| Nc1ccc(-c2nnn(Cc3c(F)cc(C(=O)NO)cc3F)n2)cc1 [comp. 171, 4-[[5-(4-aminophenyl)tetrazol-2-yl]methyl]-3,5-difluoro-benzenecarbohydroxamic acid] |  | > 10 µM |  |
| O=C(NO)c1ccc(Cn2nnc(-c3cccs3)n2)cc1 [comp. 50, 4-[[5-(2-thienyl)tetrazol-2-yl]methyl]benzenecarbohydroxamic acid] | 0.154 µM |  |  |
| Cn1c(Sc2c(F)cc(C(=O)NO)cc2F)nnc1-c1ncccc1F [comp. 180, 3,5-difluoro-4-[[5-(3-fluoro-2-pyridyl)-4-methyl-1,2,4-triazol-3-yl]sulfanyl]benzenecarbohydroxamic acid] |  | > 10 µM |  |
| Nn1c(Sc2ccc(C(=O)NO)cc2)nnc1-c1ccc(OC(F)F)cc1 [comp. 28, 4-[[4-amino-5-[4-(difluoromethoxy)phenyl]-1,2,4-triazol-3-yl]sulfanyl]benzenecarbohydroxamic acid] | 0.373 µM |  |  |
| COc1ccc(C(=O)N[C@@H](Cc2cscn2)c2nc(Cc3ccc(C(=O)NO)cc3)no2)cc1OC [comp. 1, (S)—N-(1-(3-(4-(hydroxycarbamoyl)benzyl)-1,2,4-oxadiazol-5-yl)-2-(thiazol-4-yl)ethyl)-3,4-dimethoxybenzamide] | 2.87 µM | 7 µM |  |
| O=C(NO)c1cc(F)c(Cn2nnnc2-c2ncccn2)c(F)c1 [comp. 125, 3,5-difluoro-4-[(5-pyrimidin-2-yltetrazol-1-yl)methyl]benzenecarbohydroxamic acid] |  | > 10 µM |  |
| CN(C)c1cccc(-c2nnc(Sc3c(F)cc(C(=O)NO)cc3F)n2C)c1 [comp. 80, 4-[[5-[3-(dimethylamino)phenyl]-4-methyl-1,2,4-triazol-3-yl]sulfanyl]-3,5-difluoro-benzenecarbohydroxamic acid] | 1.87 µM |  |  |
| Cn1c(Sc2c(F)cc(C(=O)NO)cc2F)nnc1-c1ccc(CN2CCCCCC2)cc1 [comp. 168, 4-[[5-[4-(azepan-1-ylmethyl)phenyl]-4-methyl-1,2,4-triazol-3-yl]sulfanyl]-3,5-difluoro-benzenecarbohydroxamic acid] |  | 7 µM |  |
| Cn1c(Sc2c(F)cc(C(=O)NO)cc2F)nnc1-c1cccs1 [comp. 17, 3,5-difluoro-N-hydroxy-4-((4-methyl-5-(thiophen-2-yl)-4H-1,2,4-triazol-3-yl)thio)benzamide] | 2.83 µM | 9 µM | inhibition at 1 µM [3, 4]: 41.6%; inhibition at 1 µM [3, 5]: 31.2%; inhibition at 1 µM [3, 6]: 39.4% |
| O=C(NO)c1cc(F)c(Cc2nnc(-c3ccncc3)s2)c(F)c1 [compound 195, 3,5-difluoro-4-[[5-(4-pyridyl)-1,3,4-thiadiazol-2-yl]methyl]benzenecarbohydroxamic acid] |  | > 10 µM |  |
| Cn1c(Sc2ccc(C(=O)NO)cc2)nnc1-c1cccs1 [comp. 10, N-hydroxy-4-((4-methyl-5-(thiophen-2-yl)-4H-1,2,4-triazol-3-yl)thio)benzamide] | 0.487 µM | 4.5 µM | inhibition at 1 µM [3, 4]: 25.6%; inhibition at 1 µM [3, 5]: 20.6%; inhibition at 1 µM [3, 6]: 49.4% |
| O=C(NO)c1ccc(Cc2nnc(-c3ccc(F)cc3F)o2)cc1 [comp. 58, 4-((5-(2,4-difluorophenyl)-1,3,4-oxadiazol-2-yl)methyl)-N-hydroxybenzamide] | 0.206 µM |  |  |
| O=C(NO)c1ccc(Cn2nnc(-c3ccc(C(F)(F)F)cc3)n2)cc1 [comp. 23, 4-[[5-[4-(trifluoromethyl)phenyl]tetrazol-2-yl]methyl]benzenecarbohydroxamic acid] | 0.568 µM |  |  |
